Data on 1 molecule can be found in publication PMC9166630, “SAR Probing of KX2-391 Provided Analogues With Juxtaposed Activity Profile Against Major Oncogenic Kinases” (Frontiers in Oncology, 2022).

Molecules are shown by their SMILES. “And” between values parts separate entries of the source, which are not always exact repeats. Identical values can stand only once.

One assay deals with TXK. Kind of assay: PamChip tyrosine kinase microarray, TXK. In kind it is biochemical, human. As to conditions: 4e 0.1 µM, HL60 lysate. On the procedure:
(§1) The changes in kinase activities induced by treatment with 4e were monitored within the HL60 cell lines using PamGene’s (Hertogenbosch, Netherlands) PamChip® peptide microarray profiler, which quantifies the activities of 144 tyrosine kinases (YK) ([29], [30]) (Figure 7). Results are provided as a log fold change (LFC) heatmap and Mean Kinase Statistic. From the LFC it is apparent that compound 4e, at a concentration of 0.1 µM, induced sizable changes to the activity of several kinases within the cell signaling YK profile (Figure 7A).
(§2) An Upstream Kinase tool was used to generate a putative list of kinases responsible for phosphorylating the phospho-sites on the PamChip (Figure 7B) ([31]). It is an interpretation and is highly dependent on the contents of the underlying phosphorylation databases. A Kinase Score was used for ranking kinases based on their significance and specificity in terms of the set of peptides used for the corresponding kinase. Kinase Statistics indicates the overall change of the peptide set that represents the kinase. Kinase statistics value <0 indicates lower kinase activity in the compound spiked lysate and vice versa ([32], [33]). Table 5 lists the 20 most changed kinases within treated HL60 cell lysates by 0.1 μM 4e, ranked according to their Kinase Score.
(§3) The compound 4e was spiked into HL60 cell lysate at different concentrations (0.001, 0.01, 0.1, 1, 10 and 50 μM). In addition, DMSO was also spiked in HL60 lysate at low concentration (2% v/v) as control. Samples were profiled on PamGene’s Tyrosine Kinase (PTK) arrays in technical replicates, covering a total of 196 phosphorylation sites. Frozen HL60 cultured cell pellet was sent to PamGene. At PamGene, cells were lysed using a lysis buffer and proteases inhibitors cocktail. Protein concentration was measured using standard Bradford assay as per PamGene SOPs. These lysates were further used for generating the PTK activity profiles. For spiking, 4e was received as powder form and dissolved in DMSO at PamGene facility followed by storing at -20°C in small aliquots. PamGene used its in-house bioinformatics toolbox in combination with other methods to generate hypotheses of signaling pathways.

A further assay concerns the target T1, Tyro3/Sky (Homo sapiens, UniProt Q06418).
T1 construct: endogenous in cells; host or cells: HL60 lysate
T1 sequence (Q06418 41-890): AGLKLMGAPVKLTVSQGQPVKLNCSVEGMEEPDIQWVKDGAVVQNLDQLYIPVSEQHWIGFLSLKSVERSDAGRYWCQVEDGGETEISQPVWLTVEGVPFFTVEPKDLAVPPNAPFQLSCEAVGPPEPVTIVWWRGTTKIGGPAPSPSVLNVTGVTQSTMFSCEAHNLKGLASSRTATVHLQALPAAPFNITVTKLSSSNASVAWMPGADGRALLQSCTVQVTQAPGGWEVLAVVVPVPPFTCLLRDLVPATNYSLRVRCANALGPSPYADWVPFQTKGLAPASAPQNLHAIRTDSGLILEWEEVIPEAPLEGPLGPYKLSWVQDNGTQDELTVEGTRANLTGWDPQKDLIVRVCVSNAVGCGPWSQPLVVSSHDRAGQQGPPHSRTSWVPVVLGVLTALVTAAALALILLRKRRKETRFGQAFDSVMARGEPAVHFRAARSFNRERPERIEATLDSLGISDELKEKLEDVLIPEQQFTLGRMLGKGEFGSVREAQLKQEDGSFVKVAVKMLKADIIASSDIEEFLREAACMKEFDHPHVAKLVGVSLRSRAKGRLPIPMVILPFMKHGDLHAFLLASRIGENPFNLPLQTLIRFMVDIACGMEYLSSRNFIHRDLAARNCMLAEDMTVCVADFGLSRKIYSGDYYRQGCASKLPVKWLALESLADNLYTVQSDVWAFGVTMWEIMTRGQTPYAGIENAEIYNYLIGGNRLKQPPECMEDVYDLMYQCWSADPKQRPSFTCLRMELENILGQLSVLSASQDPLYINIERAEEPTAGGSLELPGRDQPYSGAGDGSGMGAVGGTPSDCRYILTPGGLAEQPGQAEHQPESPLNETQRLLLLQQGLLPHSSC
Kind of assay: PamChip tyrosine kinase microarray, Tyro3/Sky. The note with it: 4e 0.1 µM, HL60 lysate. In kind it is biochemical. On the procedure:
as §1, §2, §3

The next assay relates to C-Jun. Kind of assay: Human phosphokinase array, c-Jun. It is filed as cell-based. An excerpt:
(§4) The kinome tree representation (Figure 7C), which was generated by raising the Kinase Score cut-off to >1.2, confirmed that, unlike tirbanibulin and our prototype molecule KX1-136, 4e’s effects were more observable on kinases other than the Src family such as the Eph and TEC families. […] Therefore, we screened compound 4e using the Human Phospho-Kinase Array® kit from R&D systems (Minneapolis, MN, USA). In this system, 35 phosphorylated YK and serine-threonine kinase (STK) enzymes in the untreated (control) and treated (test) HL60 cell lysates were captured on nitrocellulose membrane, pre-spotted with phosphokinase-specific capture antibodies, and then visualized by detection antibody cocktails (Figure 8). The difference in the spot intensity between untreated (control) and treated cells is proportional to change in the amount of the phosphorylated protein induced by 4e.
(§5) The phosphorylation profile of 48 kinases was performed using the Proteome Profiler Human Phospho-Kinase Antibody Array Kit by R&D Systems (Minneapolis, MN, USA) according to the protocol. Briefly, the total cellular protein was extracted using the Lysis buffer and was quantified using Bio-Rad DC Protein Assay kit (Hercules, CA, USA). Nitrocellulose membrane set (A&B), pre-spotted with kinase-specific capture antibodies, were first blocked with Array Buffer-1 at RT for 30 min on a rocking platform shaker. Approximately 600 µg of protein concentrate was diluted in the buffer provided and was added onto the membrane set, and the membranes were incubated overnight at 4°C in an 8-well plate. Subsequently, membranes were washed with Wash Buffer and incubated with appropriate Detection Antibody cocktails for 2 h at RT. Streptavadin-HRP (1:2000) was added onto membranes and incubated for 30 min at RT. Membranes were washed, and Chemiluminescent Detection Reagents 1&2 were applied in equal volumes for detection. The signals were detected on C-DiGit®Blot Scanner (LI-COR, Odyssey Imaging Systems, Lincoln, Nebraska, USA) using Image Studio 5.0 software.

The next assay addresses T2, JAK1~b (Homo sapiens, UniProt P23458).
T2 construct: The compound 4e was spiked into HL60 cell lysate at different concentrations; endogenous in cells; host or cells: HL60 cell lysate
Kind of assay: PamChip tyrosine kinase microarray, JAK1~b. It is filed as biochemical. The note with it: 4e 0.1 µM, HL60 lysate. On the procedure:
as §1, §2, §3

Another assay has as its system JNK1/2/3. Kind of assay: Human phosphokinase array, JNK1/2/3. It is filed as cell-based.
Excerpt: as §4, §5

T2 sequence (P23458 whole entry): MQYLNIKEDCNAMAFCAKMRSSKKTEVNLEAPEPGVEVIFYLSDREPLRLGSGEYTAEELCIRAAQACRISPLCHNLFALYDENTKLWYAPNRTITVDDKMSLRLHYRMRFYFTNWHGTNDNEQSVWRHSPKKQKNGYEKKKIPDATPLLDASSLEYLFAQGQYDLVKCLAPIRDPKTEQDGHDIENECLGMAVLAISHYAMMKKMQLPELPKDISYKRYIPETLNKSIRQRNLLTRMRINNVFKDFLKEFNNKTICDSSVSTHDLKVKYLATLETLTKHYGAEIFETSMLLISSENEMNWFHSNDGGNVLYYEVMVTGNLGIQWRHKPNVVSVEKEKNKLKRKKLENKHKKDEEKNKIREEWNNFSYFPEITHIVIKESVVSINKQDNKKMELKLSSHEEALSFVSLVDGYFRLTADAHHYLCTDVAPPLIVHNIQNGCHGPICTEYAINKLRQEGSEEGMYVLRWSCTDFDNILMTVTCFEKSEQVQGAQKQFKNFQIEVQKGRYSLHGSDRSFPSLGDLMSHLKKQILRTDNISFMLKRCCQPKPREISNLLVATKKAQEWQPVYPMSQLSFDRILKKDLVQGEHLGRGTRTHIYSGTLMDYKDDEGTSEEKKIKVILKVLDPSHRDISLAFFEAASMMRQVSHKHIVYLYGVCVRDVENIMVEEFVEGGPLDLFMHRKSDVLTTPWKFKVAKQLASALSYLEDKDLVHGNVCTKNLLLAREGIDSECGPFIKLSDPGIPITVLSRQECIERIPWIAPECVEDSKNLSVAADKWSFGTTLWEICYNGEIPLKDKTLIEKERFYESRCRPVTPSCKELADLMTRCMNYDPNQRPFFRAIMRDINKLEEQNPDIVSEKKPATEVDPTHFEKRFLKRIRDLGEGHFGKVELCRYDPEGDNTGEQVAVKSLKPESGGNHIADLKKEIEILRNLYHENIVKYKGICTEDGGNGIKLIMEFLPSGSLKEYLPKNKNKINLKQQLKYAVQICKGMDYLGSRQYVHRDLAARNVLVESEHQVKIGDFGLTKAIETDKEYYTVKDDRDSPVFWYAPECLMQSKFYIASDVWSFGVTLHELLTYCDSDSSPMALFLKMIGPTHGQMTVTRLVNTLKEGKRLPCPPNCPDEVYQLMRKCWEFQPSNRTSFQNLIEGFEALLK

For `O=C(Cc1ccc(NC(=O)c2cccc(Cl)c2)cc1)NCc1ccccc1` [Compound 4e, N-(4-(2-(benzylamino)-2-oxoethyl)phenyl)-3-chlorobenzamide], in the assay on TXK, the “Mean Final Score” value is listed as 1.9145, the “Mean Kinase Statistic” value is listed as -0.5527, the “Mean Significance Score” value is recorded as 1.2373 and the “Mean Specificity Score” value is on record as 0.6772. For the same molecule, at Tyro3/Sky, the “Mean Final Score” value is recorded as 1.8204, the “Mean Kinase Statistic” value is listed as -0.5274, the “Mean Significance Score” value is reported as 1.2459 and the “Mean Specificity Score” value is recorded as 0.5745. In the assay with C-Jun (HL60 cell lysate, treated), the “phosphokinase signal after 4e exposure, C-Jun” value is 1811.31. Besides, the “Change in Signal, C-Jun” value in the assay with C-Jun (treated vs untreated HL60) came to 829.81. For the same molecule, the “% Change, C-Jun” value in the assay on C-Jun (treated vs untreated HL60, Ser63 phosphorylation increase) was 84% and 84.55%. Moreover, on JAK1~b, the “Mean Final Score” value came out at 1.3907, the “Mean Kinase Statistic” value was -0.5828, the “Mean Significance Score” value amounted to 0.8736 and the “Mean Specificity Score” value is 0.5171. For the same molecule, the “phosphokinase signal after 4e exposure, JNK1/2/3” value in the assay on JNK1/2/3 (HL60 cell lysate, treated) is 20.91. In the assay on JNK1/2/3 (treated vs untreated HL60), the “% Change, JNK1/2/3” value is -50.61% and the “Change in Signal, JNK1/2/3” value is on record as -21.43.
